Assay results published in article PMC8699473, “An Easily Expandable Multi-Drug LC-MS Assay for the Simultaneous Quantification of 57 Oral Antitumor Drugs in Human Plasma” (Cancers, 2021).

How the values were obtained:
[1] = Short-term stability in spiked pooled human plasma (bench-top, 4 °C, 56 °C)
[2] = Autosampler stability of ready for injection samples; assay type: physicochemical, human
[3] = Long-term stability in spiked pooled human plasma
[4] = Plasma concentrations in patients on oral antitumor therapy (LC-MS); assay type: in vivo, human; settings: 14 mg/day, 24 h, ±4 h of trough level: yes
Text: The liquid chromatography-mass spectrometer system consisted of a Thermo Scientific Dionex UltiMate^TM 3000 with an integrated and temperature controlled autosampler (Thermo Fisher Scientific, Dreieich, Germany). An Acquity UPLC® BEH C18 column (2.1 × 100 mm, 1.7 µm; Waters, Milford, CT, USA) equipped with an Acquity UPLC® BEH C18 VanGuard^TM Pre-Column (2.1 × 5 mm, 1.7 µm; Waters, Milford, CT, USA) was used for chromatographic separation. The Q-Exactive^TM Focus mass spectrometer (MS) was hyphenated with a heated electrospray ionization (HESI) source (both from Thermo Fisher Scientific, Dreieich, Germany).
Chromatographic separation was achieved using a gradient elution with water containing 0.5% (v/v) FA (eluent A) and MeOH with 0.1% (v/v) FA (eluent B). The injection volume was 5 µL. The gradient program is shown in Supplement Table S2. The flow rate was 0.5 mL/min with a total run time of 15 min. The column heater was maintained at 50 °C and the autosampler temperature was 4 °C.
The following MS and HESI settings were maintained for all analyses: Sheath gas, auxiliary gas, and sweep gas flow rates were set to 60, 20, and 0, respectively. The spray voltage was 4000 V. Both capillary and auxiliary gas heater temperatures were set to 400 °C. High-purity nitrogen gas was used for the HESI source gases and for the bath gas of the C-trap. […] The HESI source was configured in positive mode for ionization.
The stock solutions were stored in glass vials at −80 °C. Aliquots of all stock solutions were combined in ACN (volumes of individual stock solution solvents are negligible) to obtain a standard solution of all analytes with an individual concentration of 200% of the respective trough level (cmin). Eight individual working standards were prepared by stepwise dilution of this standard solution with concentrations from 10 to 200% cmin (shown in Supplement Table S3). Furthermore, the four individual IS stock solutions were combined and diluted to 50 ng/mL with ACN. Calibration and validation standards were prepared by spiking 50 µL pooled human plasma with 10 µL of the respective working solution. Next, 250 µL IS solution (50 ng/mL in ACN) were added and vortexed vigorously. […] Then, 100 µL supernatant were transferred to 300 µL HPLC insert glass vials and diluted with 100 µL eluent (90% A/10% B). For blank samples, 50 µL pooled human plasma were combined with 10 µL ACN (instead of working solution) and prepared as described above. The calibration and validation standards were freshly prepared before every run. Patient plasma samples were prepared as calibration and validation standards (no additional processing step necessary), except for adding 10 µL ACN instead of 10 µL working standard. Before sample preparation, the frozen plasma samples were thawed in absence of light at 4 °C.
Blood samples were collected over the entire dosing interval from patients treated with an oral anticancer drug as listed in Supplement Table S4. […] A maximum of two samples at two different time points throughout the entire dosing interval were collected per patient. Treatment duration before collection was at least five half-lives (depending on the specific oral anticancer drug). The samples were collected in K3-EDTA tubes.
A total of 71 blood samples from 39 patients treated with 14 different oral anticancer drugs were collected (see Supplement Table S4 for details). All patients were recruited from independent outpatient clinics associated with the Comprehensive Cancer Center of the University Hospital Erlangen (CCC Erlangen-EMN). Of 71 blood samples, 41 were taken ±4 h of trough level (cmin).

[5] = Freeze-thaw stability in spiked pooled human plasma; assay type: physicochemical

COc1cc2nccc(Oc3ccc(NC(=O)NC4CC4)c(Cl)c3)c2cc1C(N)=O [Lenvatinib]
Short-time stability (1h, 56°C) Accuracy [%] ([1]; validation standard 2xLLOV): 56.5% | Short-time stability (24h, 4°C, without daylight) Accuracy [%] ([1]; validation standard 2xLLOV): 103.4% | Short-time stability (24h, RT, with daylight) Accuracy [%] ([1]; validation standard 2xLLOV): 96.8% | Short-time stability (24h, RT, without daylight) Accuracy [%] ([1]; validation standard 2xLLOV): 94.6% | Short-time stability (1h, 56°C) Accuracy [%] ([1]; validation standard LLOV): 62.9% | Short-time stability (24h, 4°C, without daylight) Accuracy [%] ([1]; validation standard LLOV): 114.0% | Short-time stability (24h, RT, with daylight) Accuracy [%] ([1]; validation standard LLOV): 106.4% | Short-time stability (24h, RT, without daylight) Accuracy [%] ([1]; validation standard LLOV): 110.0% | Short-time stability (1h, 56°C) Accuracy [%] ([1]; validation standard MOV): 46.6% | Short-time stability (24h, 4°C, without daylight) Accuracy [%] ([1]; validation standard MOV): 95.9% | Short-time stability (24h, RT, with daylight) Accuracy [%] ([1]; validation standard MOV): 93.9% | Short-time stability (24h, RT, without daylight) Accuracy [%] ([1]; validation standard MOV): 94.3% | Short-time stability (1h, 56°C) Accuracy [%] ([1]; validation standard ULOV): 40.6% | Short-time stability (24h, 4°C, without daylight) Accuracy [%] ([1]; validation standard ULOV): 100.4% | Short-time stability (24h, RT, with daylight) Accuracy [%] ([1]; validation standard ULOV): 102.7% | Short-time stability (24h, RT, without daylight) Accuracy [%] ([1]; validation standard ULOV): 97.9% | Autosampler (24h, 4°C) Accuracy [%] ([2]; validation standard 2xLLOV): 102.4% | Autosampler (72h, 4°C) Accuracy [%] ([2]; validation standard 2xLLOV): 97.9% | Autosampler (24h, 4°C) Accuracy [%] ([2]; validation standard LLOV): 110.0% | Autosampler (72h, 4°C) Accuracy [%] ([2]; validation standard LLOV): 103.7% | Autosampler (24h, 4°C) Accuracy [%] ([2]; validation standard MOV): 100.6% | Autosampler (72h, 4°C) Accuracy [%] ([2]; validation standard MOV): 98.6% | Autosampler (24h, 4°C) Accuracy [%] ([2]; validation standard ULOV): 102.6% | Autosampler (72h, 4°C) Accuracy [%] ([2]; validation standard ULOV): 102.7% | Long-term stability, 1 month, -20°C Accuracy [%] ([3]; validation standard 2xLLOV): 99.7% | Long-term stability, 1 month, -80°C Accuracy [%] ([3]; validation standard 2xLLOV): 94.9% | Long-term stability, 2 month, -20°C Accuracy [%] ([3]; validation standard 2xLLOV): 97.0% | Long-term stability, 2 month, -80°C Accuracy [%] ([3]; validation standard 2xLLOV): 100.9% | Long-term stability, 3 month, -20°C Accuracy [%] ([3]; validation standard 2xLLOV): 103.0% | Long-term stability, 3 month, -80°C Accuracy [%] ([3]; validation standard 2xLLOV): 104.8% | Long-term stability, 6 weeks, 4°C, without daylight Accuracy [%] ([3]; validation standard 2xLLOV): 105.2% | Long-term stability, 1 month, -20°C Accuracy [%] ([3]; validation standard LLOV): 109.4% | Long-term stability, 1 month, -80°C Accuracy [%] ([3]; validation standard LLOV): 107.0% | Long-term stability, 2 month, -20°C Accuracy [%] ([3]; validation standard LLOV): 102.7% | Long-term stability, 2 month, -80°C Accuracy [%] ([3]; validation standard LLOV): 108.7% | Long-term stability, 3 month, -20°C Accuracy [%] ([3]; validation standard LLOV): 105.7% | Long-term stability, 3 month, -80°C Accuracy [%] ([3]; validation standard LLOV): 110.3% | Long-term stability, 6 weeks, 4°C, without daylight Accuracy [%] ([3]; validation standard LLOV): 127.4% | Long-term stability, 1 month, -20°C Accuracy [%] ([3]; validation standard MOV): 95.8% | Long-term stability, 1 month, -80°C Accuracy [%] ([3]; validation standard MOV): 94.5% | Long-term stability, 2 month, -20°C Accuracy [%] ([3]; validation standard MOV): 98.2% | Long-term stability, 2 month, -80°C Accuracy [%] ([3]; validation standard MOV): 97.2% | Long-term stability, 3 month, -20°C Accuracy [%] ([3]; validation standard MOV): 99.7% | Long-term stability, 3 month, -80°C Accuracy [%] ([3]; validation standard MOV): 100.5% | Long-term stability, 6 weeks, 4°C, without daylight Accuracy [%] ([3]; validation standard MOV): 107.3% | Long-term stability, 1 month, -20°C Accuracy [%] ([3]; validation standard ULOV): 96.4% | Long-term stability, 1 month, -80°C Accuracy [%] ([3]; validation standard ULOV): 94.7% | Long-term stability, 2 month, -20°C Accuracy [%] ([3]; validation standard ULOV): 101.7% | Long-term stability, 2 month, -80°C Accuracy [%] ([3]; validation standard ULOV): 101.9% | Long-term stability, 3 month, -20°C Accuracy [%] ([3]; validation standard ULOV): 98.3% | Long-term stability, 3 month, -80°C Accuracy [%] ([3]; validation standard ULOV): 100.8% | Long-term stability, 6 weeks, 4°C, without daylight Accuracy [%] ([3]; validation standard ULOV): 101.9% | Measured plasma concentration [4]: 7.8 ng/mL | Freeze-Thaw Accuracy [%] ([5]; validation standard 2xLLOV): 102.5% | Freeze-Thaw Accuracy [%] ([5]; validation standard LLOV): 111.6% | Freeze-Thaw Accuracy [%] ([5]; validation standard MOV): 98.4% | Freeze-Thaw Accuracy [%] ([5]; validation standard ULOV): 103.0%
